# Results from US20250277001A1, “PEPTIDE DERIVATIVES AND RELATED USES AS OREXIN AGONISTS” (CENTESSA PHARMACEUTICALS (UK) LIMITED, priority 2022, published 2025).
# Like-named read-outs stand apart in the source and are kept apart here. Where a SMILES comes first, the peptide text is derived from it. Where no end group is shown, it is not given here. [ ]: non-standard residue; d: D form. The star is where a group is joined. Malonyl(2,2-Me2,histaminyl) = CC(C)(C(=O)NCCc1cnc[nH]1)C(=O)*; d(hArg) = N=C(N)NCCCC[C@@H](N)C(=O)O; Gly(NCH2CH2Ph) = O=C(O)CNCCc1ccccc1; Hyp = O=C(O)[C@@H]1C[C@@H](O)CN1; hArg = N=C(N)NCCCC[C@H](N)C(=O)O; NMeN = CN[C@@H](CC(N)=O)C(=O)O; Aoc(2) = CCCCCC[C@H](N)C(=O)O; Phg = N[C@H](C(=O)O)c1ccccc1
# What was measured:
# [1] = test system: individuals with NT1; settings: initial clinical studies; cited from earlier work
# [2] = test system: mice; settings: cited from earlier work
# [3] = target: T1, human orexin type 2 receptor (hOX2R) (Homo sapiens, UniProt O43614); assay: Measurement of orexin type 2 receptor agonist activity (CHO cells, FLIPR TETRA intracellular Ca2+); format: cell-based
# T1 construct: expressed in transfected cells
# T1 sequence (O43614 1-444): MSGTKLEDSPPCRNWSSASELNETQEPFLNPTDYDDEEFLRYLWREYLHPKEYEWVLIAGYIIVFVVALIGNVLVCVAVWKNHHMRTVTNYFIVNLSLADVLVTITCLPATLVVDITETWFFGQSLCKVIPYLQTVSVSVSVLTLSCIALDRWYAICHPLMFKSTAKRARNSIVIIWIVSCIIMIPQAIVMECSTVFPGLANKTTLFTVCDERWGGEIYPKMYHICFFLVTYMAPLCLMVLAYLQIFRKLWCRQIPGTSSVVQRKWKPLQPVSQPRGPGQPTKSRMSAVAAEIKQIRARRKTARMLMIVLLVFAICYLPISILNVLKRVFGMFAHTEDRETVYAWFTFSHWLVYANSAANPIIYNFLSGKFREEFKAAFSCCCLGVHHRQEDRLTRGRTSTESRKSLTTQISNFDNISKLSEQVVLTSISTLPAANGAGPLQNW
# Source text: (§1) In some embodiments, the assay uses cells stably expressing either human orexin type 2 or human orexin type 1 receptor. In some embodiments, the cells are obtained by inserting the Orexin receptor cDNA into pcDNA3.1(+) plasmid vector, identifying clones by G418 drug resistance selection, and/or growing a single clone for OX2R-CHO and OX1R-CHO in bulk. In some embodiments, the assay is detected using Fluorescent Imaging Plate Reader TETRA (FLIPR TETRA: manufactured by Molecular Devices). In some embodiments, the agonist activity of the test peptide is calculated assuming that the fluorescence value of the well containing only the dilution buffer is 0% and the fluorescence value of the well containing 10 nM human orexin A (Tocris) buffer is 100%.
# (§2) Stable cell line generation. Obtainment of cells stably expressing either human orexin type 2 or human orexin type 1 receptor: to obtain a stable cell line the Orexin receptor cDNA was inserted into pcDNA3.1(+) plasmid vector and clones identified by G418 drug resistance selection. […] A single clone for OX2R-CHO and OX1R-CHO were grown in bulk and frozen to generate a cell bank for routine screening.
# (§3) Measurement of orexin type 2 receptor agonist activity. Chinese hamster ovary (CHO) cells expressing human orexin type 2 receptor (hOX2R) seeded in each well of 384 well black clear bottom plates (BD Flacon) at 10,000 cells per well and cultured for 24 h in an Ham's F12 (Gibco) medium containing 10% fetal calf serum (Sigma Aldrich) under the conditions of 37° C., 5% CO2. After removal of the medium, 50 μL of assay buffer 1 (0.1% bovine serum albumin (Sigma Aldrich), 20 mM HEPES (Molecular Dimensions), […] probenecid (Sigma Aldrich), 1× Calcium 5 dye (Molecular Devices) in Hank's balanced salt solution (Invitrogen)) was added, and the cells were incubated for 60 min under the conditions of 37° C., 5% CO2. A test peptide was dissolved in dimethyl sulfoxide (Sigma Aldrich) to 1 mM, and then diluted with assay buffer 2 (20 mM HEPES, Hank's balanced salt solution, 0.1% bovine serum albumin). For the reaction, a test peptide solution (10 μl) was added using Fluorescent Imaging Plate Reader TETRA (FLIPR TETRA: manufactured by Molecular Devices), a fluorescence value (excitation wavelength 488 nm, measurement wavelength 570 nm) of each well was measured every one second for 2 min, and the agonist activity was determined using the area of the fluorescence value as an indicator of intracellular Ca^2+ concentration. The agonist activity of the test peptide was calculated assuming that the fluorescence value of the well added with only the dilution buffer was 0% and the fluorescence value of the well added with 10 nM human orexin A (Tocris) buffer was 100%. As used herein, Emax indicates the value at 1 μM concentration when orexin A is converted to a full agonist (maximum value of agonist activity: 100%).
# [4] = target: T2, human orexin type 1 receptor (hOX1R) (Homo sapiens, UniProt O43613); assay: Measurement of orexin type 1 receptor agonist activity (CHO cells, FLIPR TETRA intracellular Ca2+); format: cell-based
# T2 construct: expressed in transfected cells
# T2 sequence (O43613 1-425): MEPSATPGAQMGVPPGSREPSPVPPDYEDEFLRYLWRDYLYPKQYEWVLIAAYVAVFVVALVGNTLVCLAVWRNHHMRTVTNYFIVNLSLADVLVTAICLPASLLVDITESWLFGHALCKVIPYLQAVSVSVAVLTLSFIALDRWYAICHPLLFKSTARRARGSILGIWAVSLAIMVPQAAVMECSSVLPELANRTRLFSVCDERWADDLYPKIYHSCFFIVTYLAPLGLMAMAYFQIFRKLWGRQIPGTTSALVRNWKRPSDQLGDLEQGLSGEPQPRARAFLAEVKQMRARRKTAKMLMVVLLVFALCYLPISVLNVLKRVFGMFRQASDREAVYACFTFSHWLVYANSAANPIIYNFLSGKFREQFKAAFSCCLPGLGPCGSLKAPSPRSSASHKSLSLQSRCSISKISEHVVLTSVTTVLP
# Source text: as §1, §2
# as §3, with “type 1” for “type 2”, “receptor (hOX1R) were” for “receptor (hOX2R)”
# [5] = intracerebroventricular (ICV), orexin-neuron ablated mice
compound,measurement,setting,value
COC(=O)N1CCC[C@H](NS(C)(=O)=O)[C@@H]1CO[C@H]1CC[C@@H](c2ccccc2)CC1 [TAK-925],cataplexy,[1],trends for decreasing cataplexy
same,wakefulness,[1],substantial levels of increased wakefulness
same,wakefulness,"[2]; subcutaneous, OX2R-knockout mice",not
same,wakefulness,"[2]; subcutaneous, WT mice",modestly increased
COc1ccc(-c2cccc(C(=O)N(C)C)c2)cc1S(=O)(=O)Nc1cccc(NCCNC(=O)c2ccccc2N(C)C)c1 [YNT-185],sleep-onset REM periods and cataplexy-like events,[2]; NT1 mouse model,decreases
same,wakefulness,"[2]; intraperitoneally or ICV, wild type (WT) and orexin ligand-deficient mice",modestly increases
CCCCCC[C@H](NC(=O)[C@@H](NC(=O)[C@H](CC(C)C)NC(=O)[C@@H](NC(=O)CNC(=O)[C@@H](NC(=O)[C@H](C)NC(=O)[C@@H]1C[C@@H](O)CN1C(=O)[C@H](CC(N)=O)N(C)C(=O)CN(CCc1ccccc1)C(=O)[C@H](CCCNC(=N)N)NC(=O)[C@H](CCCNC(=N)N)NC(=O)[C@@H]1C[C@@H](O)CN1C(=O)[C@@H]1C[C@@H](O)CN1C(=O)[C@@H]1C[C@@H](O)CN1)c1ccccc1)[C@@H](C)CC)[C@@H](C)O)C(N)=O [compound 16] (H-[Hyp][Hyp][Hyp]RR[Gly(NCH2CH2Ph)][NMeN][Hyp]A[Phg]GILT[Aoc(2)]-NH2),EC50,"[3]; CHO cells expressing hOX2R, Ca2+ fluorescence, read-out: hOX2 pEC50 (converted)",< 0.1 nM
same,EC50,"[4]; CHO cells expressing hOX1R, Ca2+ fluorescence, read-out: hOX1 pEC50 (converted)",> 10 nM
"CCCCCC[C@H](NC(=O)[C@@H](NC(=O)[C@H](CC(C)C)NC(=O)[C@@H](NC(=O)CNC(=O)[C@@H](NC(=O)[C@H](C)NC(=O)[C@@H]1C[C@@H](O)CN1C(=O)[C@H](CC(N)=O)N(C)C(=O)CN(CCc1ccccc1)C(=O)[C@H](CCCNC(=N)N)NC(=O)[C@H](CCCNC(=N)N)NC(=O)[C@@H]1CCCN1C(=O)[C@H](CCCCNC(=N)N)NC(=O)[C@H](CCC(N)=O)NC(=O)C(C)(C)C(=O)NCCc1cnc[nH]1)c1ccccc1)[C@@H](C)CC)[C@@H](C)O)C(N)=O [compound 17] ({Malonyl(2,2-Me2,histaminyl)}-Q[hArg]PRR[Gly(NCH2CH2Ph)][NMeN][Hyp]A[Phg]GILT[Aoc(2)]-NH2)",EC50,[3],< 0.1 nM
same,EC50,[4],> 10 nM
"CCCCCC[C@H](NC(=O)[C@@H](NC(=O)[C@H](CC(C)C)NC(=O)[C@@H](NC(=O)CNC(=O)[C@@H](NC(=O)[C@H](C)NC(=O)[C@@H]1C[C@@H](O)CN1C(=O)[C@H](CC(N)=O)N(C)C(=O)CN(CCc1ccccc1)C(=O)[C@H](CCCNC(=N)N)NC(=O)[C@H](CCCNC(=N)N)NC(=O)[C@H]1CCCN1C(=O)[C@@H](CCCCNC(=N)N)NC(=O)[C@@H](CCC(N)=O)NC(=O)C(C)(C)C(=O)NCCc1cnc[nH]1)c1ccccc1)[C@@H](C)CC)[C@@H](C)O)C(N)=O [compound 18] ({Malonyl(2,2-Me2,histaminyl)}-[dQ][d(hArg)][dP]RR[Gly(NCH2CH2Ph)][NMeN][Hyp]A[Phg]GILT[Aoc(2)]-NH2)",EC50,[3],< 0.1 nM
same,EC50,[4],> 10 nM
"CCCCCC[C@H](NC(=O)[C@@H](NC(=O)[C@H](CC(C)C)NC(=O)[C@@H](NC(=O)CNC(=O)[C@@H](NC(=O)[C@H](C)NC(=O)[C@@H]1C[C@@H](O)CN1C(=O)[C@H](CC(N)=O)N(C)C(=O)CN(CCc1ccccc1)C(=O)[C@H](CCCNC(=N)N)NC(=O)[C@H](CCCNC(=N)N)NC(=O)[C@@H]1CCCN1C(=O)[C@H](CCCCNC(=N)N)NC(=O)[C@@H](CCC(N)=O)NC(=O)C(C)(C)C(=O)NCCc1cnc[nH]1)c1ccccc1)[C@@H](C)CC)[C@@H](C)O)C(N)=O [compound 19] ({Malonyl(2,2-Me2,histaminyl)}-[dQ][hArg]PRR[Gly(NCH2CH2Ph)][NMeN][Hyp]A[Phg]GILT[Aoc(2)]-NH2)",EC50,[3],< 0.1 nM
same,EC50,[4],> 10 nM
"CCCCCC[C@H](NC(=O)[C@@H](NC(=O)[C@H](CC(C)C)NC(=O)[C@@H](NC(=O)CNC(=O)[C@@H](NC(=O)[C@H](C)NC(=O)[C@@H]1C[C@@H](O)CN1C(=O)[C@H](CC(N)=O)NC(=O)CN(CCc1ccccc1)C(=O)[C@H](CCCNC(=N)N)NC(=O)[C@H](CCCNC(=N)N)NC(=O)[C@@H]1CCCN1C(=O)[C@H](CCCCNC(=N)N)NC(=O)[C@@H](CCC(N)=O)NC(=O)C(C)(C)C(=O)NCCc1cnc[nH]1)c1ccccc1)[C@@H](C)CC)[C@@H](C)O)C(N)=O [compound 20] ({Malonyl(2,2-Me2,histaminyl)}-[dQ][hArg]PRR[Gly(NCH2CH2Ph)]N[Hyp]A[Phg]GILT[Aoc(2)]-NH2)",EC50,[3],< 0.1 nM
same,EC50,[4],1 to 10 nM
"orexin A (QPLPDCCRQKTCSCRLYELLHGAGNHAAGILTL; ends and bridges not checked; cysteine pairing not given here; UniProt O43612 34-66, looked up) [orexin neuropeptide, also known as hypocretin-1]",cataplexy-like behavior,[2]; [5],decreases
same,time spent awake,[2]; [5],increase
